In patent US20110190135A1, “SYNERGISTIC HERBICIDAL COMPOSITION CONTAINING PENOXSULAM AND BUTACHLOR” (DOW AGROSCIENCES LLC, priority 2010, published 2011):

Legend:
ECHCG - barnyard grass [1] = experiment: Weed control in transplanted rice, Field trial #1; assay type: in vivo, Ehinochloa crus-galli; settings: 42 days after application
Experimental: (§1) Field trials were conducted in rice using standard herbicide small plot research methodology. Plot size was 2 m^2 using 1.6 m diameter rings placed into the paddy soil with capability for flooding with water to represent flooded rice culture. There were 3 replicates per treatment. Rice was Japonica type that was sown in rice nursery boxes as per normal cultural practices, and then transplanted 30 days after sowing into flooded rings. The rice crop was grown using normal cultural practices for fertilization, seeding, watering, flooding and maintenance to ensure good growth of the crop and the weeds under seeded rice conditions in Taiwan. Ring plot water depth was maintained at 3 to 7 cm depth after transplanting. Just prior to treatment application, plot water was drained to maintain saturated soil in ring plot. Treatments were applied by hand and water was re-induced to 3 to 7 cm depth 24 hours after application. All treatments in the field trials were applied by mixing the treatments with soil just prior to application by hand into the ring plots at 5 to 7 days after transplanting. Commercially available products of penoxsulam and butachlor were mixed in water and sprayed onto 45 grams of soil, which is equivalent to the area treated at an application rate of 225 kg soil/ha. […]

ECHCG - barnyard grass [2] = experiment: Weed control in transplanted rice, Field trial #2; assay type: in vivo, Ehinochloa crus-galli; settings: 28 days after application
Experimental: Field trials were conducted in rice using standard herbicide small plot research methodology. Plot size was 2 m^2 using 1.6 m diameter rings placed into the paddy soil with capability for flooding with water to represent flooded rice culture. There were 3 replicates per treatment. Rice was Japonica type that was sown in rice nursery boxes as per normal cultural practices, and then transplanted 30 days after sowing into flooded rings. The rice crop was grown using normal cultural practices for fertilization, seeding, watering, flooding and maintenance to ensure good growth of the crop and the weeds under seeded rice conditions in Taiwan. Ring plot water depth was maintained at 3 to 7 cm depth after transplanting. Just prior to treatment application, plot water was drained to maintain saturated soil in ring plot. Treatments were applied by hand and water was re-induced to 3 to 7 cm depth 24 hours after application. All treatments in the field trials were applied by mixing the treatments with soil just prior to application by hand into the ring plots at 5 to 7 days after transplanting. Commercially available products of penoxsulam and butachlor were mixed in water and sprayed onto 45 grams of soil, which is equivalent to the area treated at an application rate of 225 kg soil/ha. For each 2 m^2 plot, 45 g soil was mixed with the appropriate formulated product amounts to treat 2 m^2 to achieve the desired application rates based on unit area of application (hectare). Treatments were rated as compared to the untreated control plots. Visual weed control was rated on a scale of 0 to 100 percent, where 0 corresponds to no injury and 100 corresponds to complete kill. The treated plots and control plots were rated blind at various intervals after application. Ratings were based of Percent (%) Visual weed control, where 0 corresponds to no injury and 100 corresponds to complete kill. Colby's equation was used to determine the herbicidal effects expected from the mixtures (Colby, S. R. Calculation of the synergistic and antagonistic response of herbicide combinations. Weeds 1967 15, 20-22). The following equation was used to calculate the expected activity of mixtures containing two active ingredients, A and B: Expected=A+B−(A×B/100) A=observed efficacy of active ingredient A at the same concentration as used in the mixture; B=observed efficacy of active ingredient B at the same concentration as used in the mixture.

MOOVA - pickerel weed = experiment: Weed control in transplanted rice, Field trial #2; assay type: in vivo, Monochoria vaginalis; settings: 28 days after application
Experimental: as §1

ISCRU - winklegrass = experiment: Weed control in transplanted rice, Field trial #3; assay type: in vivo, Ischaemum rugosum; settings: 42 days after application
Experimental: as §1

SMILES	ECHCG Obs - percent control observed (ECHCG - barnyard grass [1]; Butachlor 600 grams ai/ha)	ECHCG Obs - percent control observed (ECHCG - barnyard grass [2]; Butachlor 300 grams ai/ha)	MOOVA Obs - percent control observed (MOOVA - pickerel weed; Butachlor 300 grams ai/ha)	ISCRU Obs - percent control observed (ISCRU - winklegrass; Butachlor 300 grams ai/ha)	ECHCG Obs - percent control observed (ECHCG - barnyard grass [1]; Penoxsulam 30 grams ai/ha)	ECHCG Obs - percent control observed (ECHCG - barnyard grass [2]; Penoxsulam 3.8 grams ai/ha)	ECHCG Obs - percent control observed (ECHCG - barnyard grass [2]; Penoxsulam 7.5 grams ai/ha)	ECHCG Obs - percent control observed (ECHCG - barnyard grass [2]; Penoxsulam 15 grams ai/ha)	MOOVA Obs - percent control observed (MOOVA - pickerel weed; Penoxsulam 3.8 grams ai/ha)	ISCRU Obs - percent control observed (ISCRU - winklegrass; Penoxsulam 13 grams ai/ha)
CCCCOCN(C(=O)CCl)c1c(CC)cccc1CC [Butachlor, N-butoxymethyl-2-chloro-2′,6′-diethylacetanilide]	0%	13%	26%	23%	–	–	–	–	–	–
COc1cnc(OC)n2nc(NS(=O)(=O)c3c(OCC(F)F)cccc3C(F)(F)F)nc12 [Penoxsulam]	–	–	–	–	27%	0%	15%	88%	75%	1%
